Series [1] has as its target T1, respiratory chain complex II (Rattus norvegicus, UniProt P21913+Q641Z9+Q6PCT8+Q920L2).
T1 construct: from tissue; host or cells: rat liver mitochondria (male Wistar rats)
Nature of the series: Mitochondrial oxygen consumption with succinate as respiratory substrate. Type of series: biochemical. The protocol:
Figure 5 Effect of DS16570511 on oxygen consumption in the presence of succinate. (a) Mitochondria (Mt), 10 mM succinate, and 0.1 µM SF6847 were added to Pi medium containing the indicated concentrations of DS16570511 or antimycin at the time points marked by arrows. Changes in dissolved oxygen concentration in the reaction medium were measured, and representative traces are shown. “natomsO” denotes the nanomoles of oxygen atoms in the reaction medium. (b) The degree of inhibition was calculated from the rate of oxygen consumption over a 3 min period, measured 30 s after SF6847 addition. […] Data are presented as the mean ± standard deviation of independent experiments (n = 3).
(§1) Livers were harvested from 6- to 18-week-old male Wistar rats (Japan SLC, Shizuoka, Japan), and mitochondria were isolated as previously described. All animal experiments complied with the University of Tokushima Guidelines for the Care and Use of Laboratory Animals (approval number: T28-29). Mitochondrial protein concentrations were measured using the Biuret method with bovine serum albumin as the standard in the presence of 1% SDS.
When electrons were supplied via respiratory chain complex I, 5 mM glutamate and 5 mM malate were used as respiratory substrates. For electrons supplied via respiratory chain complex II, 0.68 µg/mL rotenone was added beforehand to inhibit electron transfer from endogenous respiratory chain complex I, and 10 mM succinate was used as the respiratory substrate.

The test system of another series is rat liver mitochondria. Briefly: Comparison with uncouplers on mitochondrial oxygen consumption. It is filed as biochemical. The note with it: 10 mM succinate, DS16570511 50 or 200 µM. The protocol: Figure 4 Comparison of the effects of DS16570511 and uncouplers on mitochondrial oxygen consumption. Mitochondria (Mt), 10 mM succinate (Succ), and each compound (50 or 200 µM DS16570511 [DS], SF6847 [SF], or alamethicin [Ala]) were added to Pi medium at the time points indicated by arrows. Changes in the concentration of dissolved oxygen in the reaction medium were measured using an oxygen electrode. Representative traces are shown. “natomsO” denotes the nanomoles of oxygen atoms in the reaction medium.
The rate of mitochondrial oxygen consumption was measured using a Clark-type oxygen electrode (YSI5331, Yellow Springs Instrument Co., Ltd., Yellow Springs, OH, USA) at 25 °C in 2.2 mL of Pi medium preincubated with 2.5 µM CsA. When electrons were supplied via respiratory chain complex I, 5 mM glutamate and 5 mM malate were used as respiratory substrates. For electrons supplied via respiratory chain complex II, 0.68 µg/mL rotenone was added beforehand to inhibit electron transfer from endogenous respiratory chain complex I, and 10 mM succinate was used as the respiratory substrate. The degree of inhibition and IC50 values of DS16570511 were calculated based on the oxygen consumption rate over a 3 min period, starting 30 s after the addition of SF6847.

Series [2] has as its system mitochondrial Ca2+ uptake in rat liver mitochondria. Nature of the series: Mitochondrial Ca2+ uptake assay (succinate-energized, Fluo-5). It is filed as biochemical. To be noted: 10 mM succinate, Ca2+ uptake rate during first 30 s after adding mitochondria, read-out: IC50 for inhibition of mitochondrial Ca2+ uptake. The protocol: Figure 2 Effect of DS16570511 on mitochondrial Ca^2+ uptake activity in rat liver mitochondria. (a) Mitochondrial Ca^2+ uptake activity was measured in isolated rat liver mitochondria. Mitochondria were added to Pi medium containing the indicated concentrations of DS16570511 or ruthenium 360, and changes in extramitochondrial Ca^2+ concentration over time were analyzed based on Fluo-5 fluorescence intensity. Representative traces are shown. (b) The degree of inhibition was calculated from the Ca^2+ uptake rate during the first 30 s after adding mitochondria. Data are expressed as 0% inhibition in the absence of DS16570511 (none) and 100% inhibition in the presence of ruthenium 360. […]
(§2) Livers were harvested from 6- to 18-week-old male Wistar rats (Japan SLC, Shizuoka, Japan), and mitochondria were isolated as previously described. […] Mitochondrial protein concentrations were measured using the Biuret method with bovine serum albumin as the standard in the presence of 1% SDS.
Fluo-5 (1 µM) was used as a Ca^2+-sensitive fluorescence indicator in 1 mL of Pi medium (250 mM sucrose, 10 mM Tris-MOPS, 10 µM EGTA-Tris, 0.5 mg/mL bovine serum albumin, and 10 mM KPi, pH 7.4). Fluorescence intensity was measured using an F-2700 spectrofluorometer (HITACHI, Tokyo, Japan) with excitation and emission wavelengths of 494 and 516, respectively. […]

Series [3] relates to membrane potential in rat liver mitochondria. Briefly: Measurement of mitochondrial membrane potential formation (DiSC3(5)). It is filed as biochemical. To be noted: 10 mM succinate, first 5 s after succinate addition, read-out: IC50 for inhibition of membrane potential formation. As for the experimental part: Figure 3 Effect of DS16570511 on membrane potential in rat liver mitochondria. (a) Rat liver mitochondria were incubated in Pi medium containing the indicated concentrations of DS16570511 or antimycin. At the time points indicated by arrows, 10 mM succinate was added as a respiratory substrate, and membrane potential was measured using 3 µM DiSC3(5) as a probe. Representative traces are shown. (b) The degree of inhibition was calculated from the rate of membrane potential formation during the first 5 s after succinate addition, with 0% inhibition in the absence of DS16570511 (none) and 100% inhibition in the presence of SF6847. […]
as §2
DiSC3(5) (3 µM) was used as a fluorescent probe to measure mitochondrial membrane potential in 2.2 mL of Pi medium. Fluorescence intensity was measured using an F-2700 spectrofluorometer (HITACHI, Tokyo, Japan) with excitation and emission wavelengths of 643 and 666 nm, respectively. Fluorescence intensity was recorded after adding 10 mM succinate to Pi medium containing 2.5 µM CsA, 0.68 µg/mL rotenone, 0.42 mg protein/mL mitochondria, and DS16570511. […]

The target in the next series is FoF1-ATPase/ANT. Nature of the series: Mitochondrial FoF1-ATPase activity (pH electrode). The note with it: rat liver mitochondria, 1 mM ATP, antimycin, pH change over 3 min; read-out: IC50 for inhibition of FoF1-ATPase/ANT activity (pH decrease). Type of series: biochemical. The protocol: Figure 7 Effect of DS16570511 on mitochondrial FoF1-ATPase activity. (a) Schematic representation of mitochondrial FoF1-ATPase activity: ATP enters the matrix via ANT and is hydrolyzed to ADP by FoF1-ATPase, driving proton extrusion from the matrix and decreasing the reaction medium pH. […] (b) Mitochondria were added to the incubation medium containing the indicated concentrations of DS16570511 or oligomycin, and pH changes in the medium were measured using a pH electrode. Representative traces are shown. (c) Inhibition was calculated from the pH change over a 3 min period, starting 30 s after adding mitochondria. Results are expressed as 0% inhibition in the absence of DS16570511 and 100% inhibition with oligomycin. Data are presented as the mean ± standard deviation of independent experiments (n = 3).
as §1
Mitochondrial FoF1-ATPase activity was measured using a modified version of the classical pH electrode-based method. […]

The subject of series [4] is respiratory chain complexes I–III–IV. Nature of the series: Mitochondrial oxygen consumption with glutamate and malate as respiratory substrates. It is filed as biochemical. To be noted: rat liver mitochondria, 5 mM glutamate, 5 mM malate, 0.1 µM SF6847; read-out: IC50 for inhibition of oxygen consumption (glutamate and malate; respiratory chain complexes I–III–IV). As for the experimental part: Figure 6 Effect of DS16570511 on oxygen consumption in the presence of glutamate and malate. (a) Mitochondria (Mt), 5 mM glutamate, 5 mM malate, and 0.1 µM SF6847 were added to Pi medium containing the indicated concentrations of DS16570511 or antimycin at the time points marked by arrows. Changes in dissolved oxygen concentration in the reaction medium were measured, and representative traces are shown. “natomsO” denotes the nanomoles of oxygen atoms in the reaction medium. (b) The degree of inhibition was calculated from the rate of oxygen consumption over a 3 min period, measured 30 s after SF6847 addition. Results are expressed as 0% inhibition in the absence of DS16570511 (none) and 100% inhibition with antimycin. Data are presented as the mean ± standard deviation of independent experiments (n = 3).
as §2
The rate of mitochondrial oxygen consumption was measured using a Clark-type oxygen electrode (YSI5331, Yellow Springs Instrument Co., Ltd., Yellow Springs, OH, USA) at 25 °C in 2.2 mL of Pi medium preincubated with 2.5 µM CsA. […]

The subject of a further series is Ca2+ uptake. The note with it: read-out: IC50 for inhibition of Ca2+ uptake; cited from earlier work.
The subject of the next series is mice. On the set-up: method as in PMID 32126877, PMID 38779706. The note with it: cited from earlier work.
Setting [5] is: rat liver mitochondria, succinate.

pIC50: −log10 of the molar value.

T1 sequence (Q920L2 35-656): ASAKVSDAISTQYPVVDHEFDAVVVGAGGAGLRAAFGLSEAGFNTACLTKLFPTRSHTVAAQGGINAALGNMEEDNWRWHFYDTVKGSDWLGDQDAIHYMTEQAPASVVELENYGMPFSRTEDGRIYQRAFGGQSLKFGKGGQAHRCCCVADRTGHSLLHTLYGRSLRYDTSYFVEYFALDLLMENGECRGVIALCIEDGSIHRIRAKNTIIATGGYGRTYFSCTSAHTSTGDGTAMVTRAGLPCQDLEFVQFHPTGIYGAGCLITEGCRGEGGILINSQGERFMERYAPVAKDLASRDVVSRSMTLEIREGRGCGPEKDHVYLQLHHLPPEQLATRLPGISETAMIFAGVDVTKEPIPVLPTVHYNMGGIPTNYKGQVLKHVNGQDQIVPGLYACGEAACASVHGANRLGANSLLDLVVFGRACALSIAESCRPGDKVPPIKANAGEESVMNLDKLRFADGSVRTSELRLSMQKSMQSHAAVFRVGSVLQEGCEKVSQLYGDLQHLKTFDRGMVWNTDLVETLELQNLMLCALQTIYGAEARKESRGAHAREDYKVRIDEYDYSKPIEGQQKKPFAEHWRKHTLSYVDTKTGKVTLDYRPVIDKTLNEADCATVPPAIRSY
T1 sequence (P21913 31-282): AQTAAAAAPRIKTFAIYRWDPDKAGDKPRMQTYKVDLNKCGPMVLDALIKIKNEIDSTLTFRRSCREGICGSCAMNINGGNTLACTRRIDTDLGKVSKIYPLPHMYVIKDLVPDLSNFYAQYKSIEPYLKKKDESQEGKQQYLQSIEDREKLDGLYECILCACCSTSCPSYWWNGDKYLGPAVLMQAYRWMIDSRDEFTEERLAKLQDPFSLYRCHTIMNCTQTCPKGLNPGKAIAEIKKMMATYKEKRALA
T1 sequence (Q641Z9 30-169 limits assumed): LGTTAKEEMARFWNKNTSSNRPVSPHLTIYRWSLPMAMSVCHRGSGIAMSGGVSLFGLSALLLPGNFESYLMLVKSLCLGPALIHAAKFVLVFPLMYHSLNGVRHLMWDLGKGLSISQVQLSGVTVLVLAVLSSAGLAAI
T1 sequence (Q6PCT8 57-159): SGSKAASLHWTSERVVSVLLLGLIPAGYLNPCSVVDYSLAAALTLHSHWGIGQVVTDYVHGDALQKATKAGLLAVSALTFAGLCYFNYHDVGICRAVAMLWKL

Consider `CCOC(=O)CCCn1cc(C(=O)c2cccc(NCc3c(-c4c(Cl)cccc4Cl)noc3C)c2)c2ccccc21` [Compound 2], for which the “Inhibitory activity on oxygen consumption via respiratory chain complex II (in words)” value in series [1] (setting [5]) was “completely lacked inhibitory activity”.
Take alamethicin: in the series with rat liver mitochondria, the “Effect on mitochondrial oxygen consumption (uncoupling test, in words)” value (from here on “Effect … (uncoupling test, in words)”) is listed as “markedly increased oxygen consumption”.
For `CC(C)(C)c1cc(C=C(C#N)C#N)cc(C(C)(C)C)c1O` [SF6847], in the series on rat liver mitochondria, the “Effect … (uncoupling test, in words)” value was “markedly increased oxygen consumption”.
With `CCOC(=O)CCCn1cc(C(=O)c2cccc(/N=C/c3c(-c4c(Cl)cccc4Cl)noc3C)c2)c2ccccc21` [Compound 4], in series [1] (setting [5]), the “Inhibitory activity on oxygen consumption via respiratory chain complex II (in words)” value was “completely lacked inhibitory activity”.
With `Cc1onc(-c2c(Cl)cccc2Cl)c1CNc1cccc(C(=O)c2cn(CCCC(=O)O)c3ccccc23)c1` [DS16570511], the pIC50 in series [1] is 5.02; in series [2], 5.04; in series [3], 4.97; on FoF1-ATPase/ANT it was 4.01; in series [4] it was 4.39. Moreover, the “Inhibition of oxygen consumption at a single concentration (in words)” value in series [1] (200 µM, rat liver mitochondria, succinate, SF6847) was “inhibited oxygen consumption to the same extent as antimycin”. Also, the “Effect … (uncoupling test, in words)” value in the series on rat liver mitochondria is listed as “reduced the rate of oxygen consumption”.
With `N.N.N.N.N.N.N.N.O=CO.O=CO.[O-2].[Ru+3].[Ru+4]` [Ruthenium 360], the pIC50 in the series on Ca2+ uptake was 9.74.
In the case of `Cc1onc(-c2c(Cl)cccc2Cl)c1/C=N/c1cccc(C(=O)c2cn(CCCC(=O)O)c3ccccc23)c1` [Compound 3], the pIC50 in series [1] was 4.28.
As for `N.N.N.N.N.N.N.N.[Cl][Ru+3].[N-]=[Ru][Cl]` [ruthenium 265], the “Adverse effect after intraperitoneal administration” value with mice is “caused seizure-like movements”.
